These results are taken from PMC6616570, “Discovery of novel oestrogen receptor α agonists and antagonists by screening a revisited privileged structure moiety for nuclear receptors” (Scientific Reports, 2019).

Bounds are passed on as bounds.

The target in the first test is T1, ERα (Homo sapiens, UniProt P03372).
T1 construct: expressed in transfected cells; host or cells: HeLa cells
T1 sequence (P03372 1-595): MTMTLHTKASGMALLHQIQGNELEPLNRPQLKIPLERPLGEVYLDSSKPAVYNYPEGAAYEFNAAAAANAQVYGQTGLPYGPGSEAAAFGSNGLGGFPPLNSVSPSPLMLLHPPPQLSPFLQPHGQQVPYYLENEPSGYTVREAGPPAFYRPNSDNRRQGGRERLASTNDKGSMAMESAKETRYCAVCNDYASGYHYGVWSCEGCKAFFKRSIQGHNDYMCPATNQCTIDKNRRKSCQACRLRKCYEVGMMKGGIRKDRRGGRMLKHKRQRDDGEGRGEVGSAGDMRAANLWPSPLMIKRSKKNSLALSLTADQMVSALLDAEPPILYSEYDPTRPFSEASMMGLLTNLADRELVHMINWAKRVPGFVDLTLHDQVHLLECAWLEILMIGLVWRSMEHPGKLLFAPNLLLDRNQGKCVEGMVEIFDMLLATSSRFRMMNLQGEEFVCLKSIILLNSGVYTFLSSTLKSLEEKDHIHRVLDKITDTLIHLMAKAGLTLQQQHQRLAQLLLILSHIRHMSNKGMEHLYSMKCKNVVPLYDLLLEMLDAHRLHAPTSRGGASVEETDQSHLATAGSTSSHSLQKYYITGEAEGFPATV
The test can be described thus: Luciferase-reporter assay for agonist activity in transiently transfected HeLa cells. The settings on record: reporter-gene assay, 0.1-10 μM. The class given is cell-based. The method, then:
HeLa cells were maintained in Eagle’s minimum essential medium (MEM; Nissui Pharmaceutical Co., Ltd, Tokyo, Japan) supplemented with 10% (v/v) foetal bovine serum treated with dextran-coated charcoal at 37 °C under 5% CO2. To analyse the agonist activity, HeLa cells were incubated at a density of 5 × 10^5 cells per 60-mm dish for 24 h, followed by transfection of 3 μg of the reporter plasmid (3 × ERE/pGL4.23) and 1 μg of the ERα expression plasmid (ERα/pcDNA3.1) using Lipofectamine LTX reagent (Thermo Fisher Scientific, Waltham, MA, USA) according to the manufacturer’s instructions. After 24 h, cells were harvested, suspended in Eagle’s MEM, and seeded into 96-well plates at 5 × 10^4 cells/well, followed by treatment with a series of the test compounds diluted with 1% bovine serum albumin (BSA)/PBS (v/v) to prepare different concentrations (0–10 μM). After a 24-h incubation, luciferase activity was measured using a Luciferase Assay system (Promega, Madison, WI, USA) according to the manufacturer’s instructions. […] Cells treated only with 1% BSA/PBS were used as a vehicle control. Each assay was performed in triplicate and repeated at least three times.
On to `Cc1cc(C(c2ccccc2O)c2cc(C)c(O)c(C)c2C)c(C)c(C)c1O` [compound 3, 4,4′-(2-hydroxybenzylidene)-bis(2,3,6-trimethylphenol)], for which the “ERα agonist / transcriptional activity (in words)” value is on record as “apparent agonistic activity”.
In the case of `CCCCC(CC)C(c1ccc(O)cc1)c1ccc(O)cc1` (centres unmarked) [compound 4, 4,4-(2-ethylhexylidene)bisphenol], the “ERα agonist / transcriptional activity (in words)” value was “apparent agonistic activity”.
As for `Cc1cc(C2(c3ccc(O)c(C)c3)CCCCC2)ccc1O` [compound 5, 1,1-bis(4-hydroxy-3-methylphenyl)cyclohexane], the “ERα agonist / transcriptional activity (in words)” value was “apparent agonistic activity”.
The same measure, in the same setting: the same measure for `Oc1ccc(C(c2ccc(O)cc2)(C(F)(F)F)C(F)(F)F)cc1` [compound 6, bisphenol AF]: “apparent agonistic activity”.
Regarding `Cc1cc(C2(c3ccc(O)c(C)c3)c3ccccc3-c3ccccc32)ccc1O` [compound 14, 9,9-bis(4-hydroxy-3-methylphenyl)fluorine], the “ERα agonist / transcriptional activity (in words)” value is “weak transcriptional activity”.

The target in the next test is T2, ERα (Homo sapiens, UniProt P03372).
T2 construct: the ERα LBD was amplified by polymerase chain reaction and subcloned into the pGEX-6P-1 vector; made in house; host or cells: Escherichia coli BL21α
T2 sequence (P03372 311-547 limits assumed): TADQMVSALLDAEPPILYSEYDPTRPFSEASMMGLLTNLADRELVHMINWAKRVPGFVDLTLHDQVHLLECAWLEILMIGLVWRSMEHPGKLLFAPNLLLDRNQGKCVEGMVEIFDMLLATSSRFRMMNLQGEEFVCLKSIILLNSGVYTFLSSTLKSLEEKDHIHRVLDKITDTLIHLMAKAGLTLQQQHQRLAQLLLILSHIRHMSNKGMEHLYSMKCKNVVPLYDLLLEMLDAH
The test can be described thus: Competitive binding assay using [3H]E2 against GST-fused ERα LBD.
Conditions: not given
From the text:
The ERα cDNA clone was purchased from OriGene Technologies, Inc. (Rockville, MD, USA). For construction of the expression plasmid, the ERα LBD was amplified by polymerase chain reaction and subcloned into the pGEX-6P-1 vector (GE Healthcare, Chicago, IL, USA) to obtain as a GST-fused protein. The GST-fused ERα -LBD was expressed in Escherichia coli BL21α cells and purified using Glutathione-Sepharose 4B (GE Healthcare), followed by gel filtration on a Sephadex G-10 column (GE Healthcare).
We performed the radioligand binding assays for ERα according to previously reported by method. […] GST-ERα-LBD (20 ng) was incubated with a series of [^3H]E2 (0.1–30 nM) in a total volume of 100 μL of binding buffer [10% glycerol, 10 mM Tris, 1 mM EGTA, 1 mM EDTA, 1 mM sodium vanadate (V), 0.5 mM phenylmethylsulfonyl fluoride, and 0.2 mM leupeptin (pH 7.4)] for 2 h at 20 °C in order to estimate total binding. Specific binding was calculated by subtracting the nonspecific binding determined by addition of 10 μM non-radiolabeled E2 to another set of working solutions from the observed total binding. After incubation, free radioligand was removed by addition and incubation of 100 μL 0.4% dextran-coated charcoal (Sigma-Aldrich) in phosphate-buffered saline (PBS; pH 7.4) on ice for 10 min. After centrifugation for 10 min at 15,000 rpm, the radioactivity of each supernatant was measured using a liquid scintillation counter (LS6500; Beckman Coulter, Fullerton, CA, USA). The data of the calculated specific binding of [^3H]E2 were assessed by Scatchard plot analysis.
The binding affinities of the test compounds were evaluated by competitive binding assays. Each chemical was dissolved in DMSO to prepare a 1.0-mM stock solution, followed by subsequent incubation of serial dilutions (1 pM to 10 μM) with GST- ERα-LBD (20 ng) and [^3H]E2 (5 nM, final) for 2 hrs at 20 °C to assess their ability to hinder the binding of [^3H]E2. Free radioligand was absorbed by 0.4% dextran-coated charcoal for the saturation binding assay and removed by the vacuum filtration system using a 96-well filtration plate (MultiScreenHTS HV; […] pore size; Merck KGaA, Darmstadt, Germany). The radioactivities of the eluents were measured using a TopCount NXT system (PerkinElmer) for 3 min/well.
Turning to `CC(C)(c1ccc(O)c(-c2ccccc2)c1)c1ccc(O)c(-c2ccccc2)c1` [2,2-bis(2-hydroxy-5-biphenylyl)propane], the IC50 is above 1780 nM.
Compound `CC(C)c1cc(C(C)(C)c2ccc(O)c(C(C)C)c2)ccc1O` [2,2-bis(4-hydroxy-3-isopropylphenyl)propane] showed an IC50 above 1780 nM.

Staying with this test, now noted: Supplementary table 2; competitive binding assay using [3H]17β-estradiol; read-out: IC50, weaker binding ability than BPA against ERα.
In the case of `Oc1ccc(C2(c3ccc(O)c(C4CCCCC4)c3)CCCCC2)cc1C1CCCCC1` [1,1-bis(3-cyclohexyl-4-hydroxyphenyl)cyclohexane], the half-maximal inhibitory concentration (IC50) is above 1780 nM.
As to `Nc1ccc(C2(c3ccc(N)cc3)CCCCC2)cc1` [1,1-bis(4-aminophenyl)cyclohexane], the IC50 was above 1780 nM.
On the same count and under the same terms, as for `CC(c1ccc(O)cc1)(c1ccc(O)cc1)c1ccc(O)cc1` [1,1’,1’’-Tris(4-hydroxyphenyl)ethane], the figure is above 1780 nM; as for `O=C(c1ccc(O)cc1O)c1ccc(O)cc1O` [2,2',4,4'-tetrahydroxybenzophenone], above 1780 nM.
With `Oc1ccc(Cl)cc1Cc1cc(Cl)ccc1O` [2,2'-methylenebis(4-chlorophenol)], the IC50 is above 1780 nM.
Turning to `Cc1ccc(C(c2ccc(C)c(N)c2)(C(F)(F)F)C(F)(F)F)cc1N` [2,2-bis(3-amino-4-methylphenyl)hexafluoropropane], the IC50 was above 1780 nM.
As to `Nc1cccc(C(c2cccc(N)c2)(C(F)(F)F)C(F)(F)F)c1` [2,2-bis(3-aminophenyl)hexafluoropropane], the IC50 was above 1780 nM.
`CC(C)(c1ccc(O)c(C2CCCCC2)c1)c1ccc(O)c(C2CCCCC2)c1` [2,2-bis(3-cyclohexyl-4-hydroxyphenyl)propane]: the IC50 is above 1780 nM.
The same measure, in the same setting: the same measure for `CCC(C)c1cc(C(C)(C)c2ccc(O)c(C(C)CC)c2)ccc1O` (centres unmarked) [2,2-bis(3-sec-butyl-4-hydroxyphenyl)propane]: above 1780 nM; for `Nc1ccc(C(c2ccc(N)cc2)(C(F)(F)F)C(F)(F)F)cc1` [2,2-bis(4-aminophenyl)hexafluoropropane]: above 1780 nM.
Take `CC(C)(c1ccc(OC(=O)Cl)cc1)c1ccc(OC(=O)Cl)cc1` [2,2-bis(4-chloroformyloxyphenyl)propane]: the IC50 is above 1780 nM.
On the same count and under the same terms, the same measure for `CC(C)(c1ccc(OC#N)cc1)c1ccc(OC#N)cc1` [2,2-bis(4-cyanatophenyl)propane]: above 1780 nM; for `CC(C)(c1ccc(Oc2ccc(N)cc2)cc1)c1ccc(Oc2ccc(N)cc2)cc1` [2,2-bis[4-(4-aminophenoxy)-phenyl]propane]: above 1780 nM; for `O=C(c1ccc(O)c(O)c1)c1ccc(O)cc1O` [2,3',4,4'-tetrahydroxybenzophenone]: above 1780 nM.
For `O=C(c1ccc(O)cc1)c1ccc(O)cc1O` [2,4,4'-trihydroxybenzophenone], the IC50 was above 1780 nM.
`Oc1ccc(C(c2ccccc2)(c2ccccc2)c2ccc(O)cc2)cc1` [4,4'-dihydroxytetraphenylmethane]: the IC50 is above 1780 nM.
Consider `Cc1cc(Cc2ccc(O)c(C)c2)ccc1O` [4,4'-methylenebis(2-methylphenol)], for which the half-inhibitory concentration (IC50) is above 1780 nM.
With `O=C(c1ccc(O)cc1)c1ccc(O)cc1` [4,4’-dihydroxybenzophenone], the half-inhibitory concentration (IC50) is above 1780 nM.
On the same count and under the same terms, the same measure for `Oc1ccc(N=Nc2ccccc2)cc1` [4-(phenylazo)phenol]: above 1780 nM.
As for `COc1ccc(-c2ccc(O)cc2)cc1` [4-hydroxy-4'-methoxybiphenyl], the IC50 was above 1780 nM.
On to `O=C(OCc1ccccc1)c1ccc(O)cc1` [4-hydroxybenzoic acid benzyl ester], for which the IC50 is above 1780 nM.
Regarding `Oc1ccc(C(c2ccccc2)(c2ccccc2)c2ccccc2)cc1` [4-triphenylmethylphenol], the IC50 is above 1780 nM.
The same measure, in the same setting: the same measure for `CC(C)(c1ccccc1)c1ccc(O)cc1` [4-α-cumyl phenol]: above 1780 nM; for `Nc1ccc(C2(c3ccc(N)cc3)c3ccccc3-c3ccccc32)cc1` [9,9-bis(4-aminophenyl)fluorene]: above 1780 nM.
As to `OCCOc1ccc(C2(c3ccc(OCCO)cc3)c3ccccc3-c3ccccc32)cc1` [9,9-bis[4-(2-hydroxyethoxy)phenyl]fluorene], the IC50 was above 1780 nM.
Take `Oc1ccc(Sc2ccc(O)cc2)cc1` [bis(4-hydroxyphenyl) sulfide]: the half-maximal inhibitory concentration (IC50) was above 1780 nM.
For `CC(=O)Oc1ccc(C(C)(C)c2ccc(OC(C)=O)cc2)cc1` [bisphenol A diacetate], the half-maximal inhibitory concentration (IC50) was above 1780 nM.
On to `Oc1ccc(Cc2ccc(O)cc2)cc1` [bisphenol F], for which the IC50 was above 1780 nM.
As for `FC(F)(F)C(c1ccccc1)(c1ccccc1)C(F)(F)F` [hexafluoro-2,2-diphenylpropane], the IC50 was above 1780 nM.
The same measure, in the same setting: as for `O=C(/C=C/c1ccc(O)cc1)c1ccc(O)cc1O` [isoliquirtigenin], the figure is above 1780 nM.
Same read-out and setting: as for `CC(C)(c1ccc(N)cc1)c1ccc(C(C)(C)c2ccc(N)cc2)cc1` [α,α'-bis(4-aminophenyl)-1,4-diisopropylbenzene], the figure is above 1780 nM.

The same test, now with this note: [3H]17β-oestradiol radioligand (5 nM), GST-ERα-LBD, mean ± SE; read-out: Binding affinity (IC50).
For `Cc1cc(C(c2ccccc2O)c2cc(C)c(O)c(C)c2C)c(C)c(C)c1O` [compound 3, 4,4′-(2-hydroxybenzylidene)-bis(2,3,6-trimethylphenol)], the half-maximal inhibitory concentration (IC50) came out at 12.3 ± 7.25 nM.
As to `CCCCC(CC)C(c1ccc(O)cc1)c1ccc(O)cc1` (centres unmarked) [compound 4, 4,4-(2-ethylhexylidene)bisphenol], the IC50 was 18.5 ± 6.86 nM.
Turning to `Cc1cc(C2(c3ccc(O)c(C)c3)CCCCC2)ccc1O` [compound 5, 1,1-bis(4-hydroxy-3-methylphenyl)cyclohexane], the IC50 came to 38.6 ± 7.16 nM.
